Km data for 1 molecule are collected here from patent publication US9650616B2, “Methods for increasing grain yield” (University of Florida Research Foundation, Inc., priority 2014, dated 2017).

The experiment has as its target T1, maize endosperm AGPase, wild type (Bt2/Sh2) (Zea mays, UniProt P55241+Q84PF5).
T1 sequence (P55241 46-516): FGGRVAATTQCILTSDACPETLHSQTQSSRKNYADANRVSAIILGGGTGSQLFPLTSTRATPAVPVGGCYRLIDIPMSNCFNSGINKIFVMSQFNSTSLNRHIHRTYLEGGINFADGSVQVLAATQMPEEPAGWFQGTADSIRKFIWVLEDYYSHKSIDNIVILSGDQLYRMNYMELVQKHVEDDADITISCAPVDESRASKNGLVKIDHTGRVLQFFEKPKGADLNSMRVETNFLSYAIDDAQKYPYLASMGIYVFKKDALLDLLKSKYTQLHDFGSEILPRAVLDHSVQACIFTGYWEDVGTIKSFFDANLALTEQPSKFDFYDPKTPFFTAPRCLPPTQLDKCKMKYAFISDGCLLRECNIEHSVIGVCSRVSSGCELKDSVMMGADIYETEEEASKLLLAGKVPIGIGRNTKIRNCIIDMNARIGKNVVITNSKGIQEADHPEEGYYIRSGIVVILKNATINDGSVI
T1 sequence (Q84PF5 1-474): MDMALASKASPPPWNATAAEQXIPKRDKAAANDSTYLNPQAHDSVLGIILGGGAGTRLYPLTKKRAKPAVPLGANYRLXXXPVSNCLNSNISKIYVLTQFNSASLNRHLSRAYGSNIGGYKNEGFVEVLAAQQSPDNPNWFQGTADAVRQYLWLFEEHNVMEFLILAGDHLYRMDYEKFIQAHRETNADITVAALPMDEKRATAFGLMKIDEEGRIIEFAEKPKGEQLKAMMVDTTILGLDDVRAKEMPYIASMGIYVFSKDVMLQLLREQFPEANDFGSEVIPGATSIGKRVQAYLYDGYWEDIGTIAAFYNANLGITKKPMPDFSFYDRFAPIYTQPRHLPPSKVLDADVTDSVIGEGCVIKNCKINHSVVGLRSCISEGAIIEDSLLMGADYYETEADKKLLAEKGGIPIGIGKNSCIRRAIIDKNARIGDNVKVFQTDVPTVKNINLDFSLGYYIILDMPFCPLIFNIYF
The experiment in a line: Apparent kinetic constants with 3-PGA, 37° C., wild type. Type of experiment: biochemical. The following applies: read-out: ATP Km, Wt.

Molecules are shown by their SMILES.

Description: The small and large subunit plasmids of maize endosperm AGPase (pMONcBt2 and pMONcSh2, respectively) (Giroux et al., 1996) were expressed in E. coli AC70R1-504 cells (Iglesias et al., 1993) as previously described (Boehlein et al., 2008).
An endpoint assay was used to determine the rate of the AGPase reaction by coupling the formation of PPi to a decrease in NADH concentration (Boehlein et al., 2008). […] The Michaelis constants (Km) were obtained by varying one substrate in the presence of saturating concentrations of the second substrate. The activation constants were obtained by varying the activator at fixed levels of both substrates. All reactions were performed at 37° C. and mixes were prewarmed before starting the reaction with enzyme. […] The absorbance at 340 nm was monitored after 30 min and the amount of PPi produced was determined from a standard curve using PPi in complete reaction mixtures lacking AGPase. Blank samples contained complete reaction mixtures without enzyme and the change in absorbance between the blank and the reaction was used to calculate the amount of PPi produced.
The apparent Michaelis constant and maximum velocity of each reaction was calculated from a V vs. S plots using nonlinear regression analysis and the following equation, v=VmaxS/(Km+S), where v is the measured velocity, Vmax is the maximum velocity, S is the substrate concentration. […]

On to `Nc1ncnc2c1ncn2[C@@H]1O[C@H](COP(=O)(O)OP(=O)(O)OP(=O)(O)O)[C@@H](O)[C@H]1O` [ATP], for which the Km came to 69 µM.

The term Km denotes the concentration of substrate that gives half-maximal velocity.
